{
  "source": "patent US20250109127A1",
  "about": "“METHODS OF USE OF PHENOXYPROPYLAMINE COMPOUNDS TO TREAT DEPRESSION” (Minerva Neurosciences, Inc., priority 2013, published 2025)",
  "system": "DOPAC release in the rat prefrontal cortex",
  "assay": "Microdialysis: DOPAC release in prefrontal cortex after I.P. administration",
  "format": "in vivo",
  "settings": "for DOPAC release, MEAN: 3 mg/kg IP; for DOPAC release, MEAN / DOPAC (% of respective basal) MEAN: n = 8",
  "experimental": "The aim of the study was to evaluate, using microdialysis, the effects of an intraperitoneal (I.P.) administration in rats of three different doses of SON-117 on dopamine and its metabolites, serotonin and its metabolite (5-HIAA), and norepinephrine levels in prefrontal cortex.\nThirty-two adult male Wistar rats were used for the whole study (4 groups of eight animals planned for the study, Table 1).\nSurgery was performed on rats weighing about 300 g at the beginning of the experiments. Rats were anaesthetized with Ketamine (50 mg/kg) & Xylazine (15 mg/kg) by intramuscular administration. The animals were placed in a stereotaxic apparatus in the flat-skull position at a constant setting of −3.3 mm between ear bars and the incisor bar. The animals were treated with a local anesthesic (xylocaine 1%, Astra Zeneca) and an analgesic (Temgesic, from Schering Plough, 0.05 mg/kg, s.c.). A rostrocaudal midline incision was made with a lancet to expose the dorsal skull surface. The “stereotaxic zero” was defined by the Bregma in accordance with Paxinos and Watson's atlas (1986). A hole was drilled in the skull with a drill and the meninges were pierced with a sterile needle to implant a CMA12 guide cannula which later received the dialysis probe.\nCoordinates used for implanting guide cannula in prefrontal cortex from Bregma were anteroposterior 3.7 mm, mediolateral 0.8 mm, and dorsoventral −2 mm (top of the probe was at −5 mm). The guide cannula was fixed to the skull with two stainless steel screws (1.88 mm outside diameter) anchored. An application of dental cement was added. A plastic collar allowed each animal to be tethered to a Swivel assembly of the CMA 120 awake animal system. Following surgery, rats were kept in individual cages and allowed to recover for a minimum of 3-5 days before the experimentation. The rats were handled and put in plastic bowl for 10 min at least every day to habituate the animals to their new environment for the dialysis. An I.P. administration with saline was also performed every day.\nDialysis probes (CMA12/3 mm, membrane, 20 kD cut-off, Carnegie Medicine, Stockholm, Sweden), were carefully washed before inserting into the guide cannula. The wash was performed with the artificial cerebrospinal fluid (aCSF) medium (NaCl 147 mM, KCl 2.7 mM, CaCl2 1.2 mM, MgCl2 0.85 mM) at room temperature. The dialysis system was then equilibrated at 20° C. at a perfusion rate of 1 μl/min with a Carnegie pump (CMA100). All catheters (FEP tubing, internal volume of 1.2 μl/10 cm, and tubing adaptors) used for microdialysis were treated in the same conditions.\nThe probes duly prepared were inserted into the guide cannula and the CMA120 Swivel assembly secured to the animal using a plastic collar. Flow through the dialysis probe with aCSF was maintained at a rate of 1 μl/min during the whole experimentation. The first four fractions (corresponding to 2 hours) were discarded to avoid the effects of parenchymal disturbance and to ensure that an approximate steady-state level was reached. Fractions were then collected over a period of 8.5 h during which time the animals remained quiet. The dialysates were automatically collected with an autosampler (microfraction collector CMA 140, Carnegie Medicin) and stored at −80° C. until analysis. […] Perfusion was then maintained for 7 hours with aCSF. The dialysates (30 μl) were collected into 300 μl vials, transferred into dry ice and then kept frozen (−80° C.) until analysis. Frozen samples were shipped to a partner for analysis. At the end of the microdialysis study, a PBS with colored ink was perfused through the probe in order to visualize the dialyzed area.\nCatecholamine assay: Concentrations of dopamine, DOPAC, HVA, 5-HIAA, 5-HT, and norepinephrin were determined for each sample by HPLC coupled with electrochemical detection.",
  "note": "Structures can show the parent of a compound that is named as a salt.",
  "data": [
    {"smiles": "Cc1nnc(-c2cc3c(OC[C@@H](O)CN4CCC(c5ccc(Cl)c(Cl)c5)CC4)cccc3o2)o1", "note": "[SON-117, (S)-1-(4-(3,4-dichlorophenyl)piperidino)-3-(2-(5-methyl-1,3,4-oxadiazol-2-yl)benzo(b)furan-4-yloxy)-2-propanol hydrochloride]", "values": [
      {"measurement": "DOPAC release, MEAN", "setting": "T-1 h 30-T-1 h (before administration)", "result": "101.39 % of respective basal"},
      {"measurement": "DOPAC release, MEAN", "setting": "T-1 h-T-30 min (before administration)", "result": "103.75 % of respective basal"},
      {"measurement": "DOPAC levels, change (not statistically significant)", "setting": "SON-117 0.1 mg/kg I.P., from 1.5 h to 2.5 h and from 4.5 h to 7 h", "result": "tended to induce a slight increase"},
      {"measurement": "release of DOPAC, trend", "setting": "SON-117 0.1 mg/kg, at 2 h and from 4.5 h to 7 h", "result": "trend for an increased release"},
      {"measurement": "DOPAC dialysate levels vs mean pre-administration value", "setting": "SON-117 0.3 mg/kg IP", "result": "no statistically significant differences"},
      {"measurement": "DOPAC dialysate levels vs mean pre-administration value", "setting": "SON-117 3 mg/kg IP", "result": "no statistically significant differences"},
      {"measurement": "DOPAC, difference to the citalopram group (two-way ANOVA)", "setting": "SON-117 at the three doses tested, in function of time", "result": "no significant differences"},
      {"measurement": "DOPAC (% of respective basal) MEAN", "setting": "SON-117 group 0.1 mg/kg I.P., T0-T30 min", "result": "81.81 % of respective basal"},
      {"measurement": "DOPAC (% of respective basal) MEAN", "setting": "SON-117 group 0.1 mg/kg I.P., T30-T1 h", "result": "104.52 % of respective basal"},
      {"measurement": "DOPAC (% of respective basal) MEAN", "setting": "SON-117 group 0.1 mg/kg I.P., T1 h 30-T2 h", "result": "144.57 % of respective basal"},
      {"measurement": "DOPAC (% of respective basal) MEAN", "setting": "SON-117 group 0.1 mg/kg I.P., T1 h-T1 h 30", "result": "112.3 % of respective basal"},
      {"measurement": "DOPAC (% of respective basal) MEAN", "setting": "SON-117 group 0.1 mg/kg I.P., T2 h 30-T3 h", "result": "94.20 % of respective basal"},
      {"measurement": "DOPAC (% of respective basal) MEAN", "setting": "SON-117 group 0.1 mg/kg I.P., T2 h-T2 h 30", "result": "102.15 % of respective basal"},
      {"measurement": "DOPAC (% of respective basal) MEAN", "setting": "SON-117 group 0.1 mg/kg I.P., T3 h 30-T4 h", "result": "96.09 % of respective basal"},
      {"measurement": "DOPAC (% of respective basal) MEAN", "setting": "SON-117 group 0.1 mg/kg I.P., T3 h-T3 h 30", "result": "90.94 % of respective basal"},
      {"measurement": "DOPAC (% of respective basal) MEAN", "setting": "SON-117 group 0.1 mg/kg I.P., T4 h 30-T5 h", "result": "120.32 % of respective basal"},
      {"measurement": "DOPAC (% of respective basal) MEAN", "setting": "SON-117 group 0.1 mg/kg I.P., T4 h-T4 h 30", "result": "142.52 % of respective basal"},
      {"measurement": "DOPAC (% of respective basal) MEAN", "setting": "SON-117 group 0.1 mg/kg I.P., T5 h 30-T6 h", "result": "122.76 % of respective basal"},
      {"measurement": "DOPAC (% of respective basal) MEAN", "setting": "SON-117 group 0.1 mg/kg I.P., T5 h-T5 h 30", "result": "129.53 % of respective basal"},
      {"measurement": "DOPAC (% of respective basal) MEAN", "setting": "SON-117 group 0.1 mg/kg I.P., T6 h 30-T7 h", "result": "137.94 % of respective basal"},
      {"measurement": "DOPAC (% of respective basal) MEAN", "setting": "SON-117 group 0.1 mg/kg I.P., T6 h-T6 h 30", "result": "127.81 % of respective basal"},
      {"measurement": "DOPAC (% of respective basal) MEAN", "setting": "SON-117 group 0.1 mg/kg I.P., T-30 min-T0 (before administration)", "result": "90.82 % of respective basal"},
      {"measurement": "DOPAC (% of respective basal) MEAN", "setting": "SON-117 group 0.1 mg/kg I.P., T-1 h 30-T-1 h (before administration)", "result": "109.18 % of respective basal"},
      {"measurement": "DOPAC (% of respective basal) MEAN", "setting": "SON-117 group 0.1 mg/kg I.P., T-1 h-T-30 min (before administration)", "result": "100.52 % of respective basal"},
      {"measurement": "DOPAC (% of respective basal) MEAN", "setting": "SON-117 group 0.3 mg/kg I.P., T0-T30 min", "result": "86.10 % of respective basal"},
      {"measurement": "DOPAC (% of respective basal) MEAN", "setting": "SON-117 group 0.3 mg/kg I.P., T30-T1 h", "result": "84.32 % of respective basal"},
      {"measurement": "DOPAC (% of respective basal) MEAN", "setting": "SON-117 group 0.3 mg/kg I.P., T1 h 30-T2 h", "result": "102.17 % of respective basal"},
      {"measurement": "DOPAC (% of respective basal) MEAN", "setting": "SON-117 group 0.3 mg/kg I.P., T1 h-T1 h 30", "result": "93.91 % of respective basal"},
      {"measurement": "DOPAC (% of respective basal) MEAN", "setting": "SON-117 group 0.3 mg/kg I.P., T2 h 30-T3 h", "result": "83.76 % of respective basal"},
      {"measurement": "DOPAC (% of respective basal) MEAN", "setting": "SON-117 group 0.3 mg/kg I.P., T2 h-T2 h 30", "result": "81.99 % of respective basal"},
      {"measurement": "DOPAC (% of respective basal) MEAN", "setting": "SON-117 group 0.3 mg/kg I.P., T3 h 30-T4 h", "result": "94.46 % of respective basal"},
      {"measurement": "DOPAC (% of respective basal) MEAN", "setting": "SON-117 group 0.3 mg/kg I.P., T3 h-T3 h 30", "result": "83.66 % of respective basal"},
      {"measurement": "DOPAC (% of respective basal) MEAN", "setting": "SON-117 group 0.3 mg/kg I.P., T4 h 30-T5 h", "result": "107.30 % of respective basal"},
      {"measurement": "DOPAC (% of respective basal) MEAN", "setting": "SON-117 group 0.3 mg/kg I.P., T4 h-T4 h 30", "result": "94.25 % of respective basal"},
      {"measurement": "DOPAC (% of respective basal) MEAN", "setting": "SON-117 group 0.3 mg/kg I.P., T5 h 30-T6 h", "result": "88.68 % of respective basal"},
      {"measurement": "DOPAC (% of respective basal) MEAN", "setting": "SON-117 group 0.3 mg/kg I.P., T5 h-T5 h 30", "result": "79.90 % of respective basal"},
      {"measurement": "DOPAC (% of respective basal) MEAN", "setting": "SON-117 group 0.3 mg/kg I.P., T6 h 30-T7 h", "result": "96.87 % of respective basal"},
      {"measurement": "DOPAC (% of respective basal) MEAN", "setting": "SON-117 group 0.3 mg/kg I.P., T6 h-T6 h 30", "result": "97.32 % of respective basal"},
      {"measurement": "DOPAC (% of respective basal) MEAN", "setting": "SON-117 group 0.3 mg/kg I.P., T-30 min-T0 (before administration)", "result": "92.84 % of respective basal"},
      {"measurement": "DOPAC (% of respective basal) MEAN", "setting": "SON-117 group 0.3 mg/kg I.P., T-1 h 30-T-1 h (before administration)", "result": "104.24 % of respective basal"},
      {"measurement": "DOPAC (% of respective basal) MEAN", "setting": "SON-117 group 0.3 mg/kg I.P., T-1 h-T-30 min (before administration)", "result": "102.91 % of respective basal"}
    ]}
  ]
}
